# In ChEMBL document CHEMBL3885861, “Open TG-GATES”:
# Species: Rattus norvegicus
# Test: Open TG-GATES - Regimen: Daily Repeat
# Format: toxicity, organism-based, Sprague-Dawley
# Design: regimen Daily Repeat, gender Male, age 6 weeks
# Conditions: in vivo, po, route gavage; for APTT / Bas / Eos / Fbg / Hb / Ht / Lym / MCHC / MCV / Mono / Neu / PT / Plat / RBC / Ret / WBC: tissue Blood; for KIDNEY_L / KIDNEY_R / KIDNEY_TOTAL: tissue Kidney; for LIVER: tissue Liver; for ALP / ALT / AST / CRE / DBIL / GLC / IP / K / LDH / Na / PL / RALB / TBIL / TC / TG / TP / gamma-GTP: tissue Plasma
# [1] = 0 mg/kg, 72 h, dose level Control, time 3 day
# [2] = 0 mg/kg, […], dose level Control, time 7 day
# [3] = 0 mg/kg, […], dose level Control, time 14 day
# [4] = 0 mg/kg, […], dose level Control, time 28 day
# [5] = 60 mg/kg, 72 h, dose level Low, time 3 day
# [6] = 60 mg/kg, […], dose level Low, time 7 day
# [7] = 60 mg/kg, […], dose level Low, time 14 day
# [8] = 60 mg/kg, […], dose level Low, time 28 day
smiles,measurement,setting,value
O=C1NC(=O)C(c2ccccc2)(c2ccccc2)N1 [PHENYTOIN],TERMINAL_BW,[1],217.7 g
same,APTT,[1],21.2 s
same,Bas,[1],0%
same,Eos,[1],0.8%
same,Fbg,[1],301.8 mg/dL
same,Hb,[1],13.3 g/dL
same,Ht,[1],39%
same,Lym,[1],81.2%
same,MCHC,[1],34.1%
same,MCV,[1],64.2 fL
same,Mono,[1],2.4%
same,Neu,[1],15.2%
same,PT,[1],16 s
same,Plat,[1],126.3 x10_4/uL
same,RBC,[1],608.6 x10_4/ul
same,Ret,[1],7.4%
same,WBC,[1],73.8 x10_2/uL
same,KIDNEY_L,[1],1 g
same,KIDNEY_R,[1],1 g
same,KIDNEY_TOTAL,[1],1.9 g
same,LIVER,[1],10.1 g
same,ALP,[1],1688.4 IU/L
same,ALT,[1],46.8 IU/L
same,AST,[1],71 IU/L
same,CRE,[1],0.1 mg/dL
same,DBIL,[1],0 mg/dL
same,GLC,[1],192.6 mg/dL
same,IP,[1],7.6 mg/dL
same,K,[1],4.1 meq/L
same,LDH,[1],178.6 IU/L
same,Na,[1],143 meq/L
same,PL,[1],141.6 mg/dL
same,RALB,[1],3.1 g/dL
same,TBIL,[1],0.018 mg/dL
same,TC,[1],73.4 mg/dL
same,TG,[1],84 mg/dL
same,TP,[1],5.7 g/dL
same,gamma-GTP,[1],1 IU/L
same,TERMINAL_BW,[2],247 g
same,TERMINAL_BW,[3],296.2 g
same,TERMINAL_BW,[4],378.5 g
same,APTT,[2],20.8 s
same,Bas,[2],0%
same,Eos,[2],0.4%
same,Fbg,[2],300.4 mg/dL
same,Hb,[2],13.4 g/dL
same,Ht,[2],39.2%
same,Lym,[2],82.2%
same,MCHC,[2],34.2%
same,MCV,[2],62.4 fL
same,Mono,[2],2.4%
same,Neu,[2],13.6%
same,PT,[2],16 s
same,Plat,[2],125.6 x10_4/uL
same,RBC,[2],628 x10_4/ul
same,Ret,[2],5.6%
same,WBC,[2],113.7 x10_2/uL
same,APTT,[3],21.7 s
same,Bas,[3],0%
same,Eos,[3],1%
same,Fbg,[3],290.6 mg/dL
same,Hb,[3],14.1 g/dL
same,Ht,[3],40.9%
same,Lym,[3],81.4%
same,MCHC,[3],34.4%
same,MCV,[3],59.2 fL
same,Mono,[3],2.2%
same,Neu,[3],14.8%
same,PT,[3],16.5 s
same,Plat,[3],124.2 x10_4/uL
same,RBC,[3],690 x10_4/ul
same,Ret,[3],4.6%
same,WBC,[3],135.4 x10_2/uL
same,APTT,[4],23.3 s
same,Bas,[4],0%
same,Eos,[4],1%
same,Fbg,[4],307.4 mg/dL
same,Hb,[4],15.3 g/dL
same,Ht,[4],42.8%
same,Lym,[4],83.4%
same,MCHC,[4],35.7%
same,MCV,[4],58.7 fL
same,Mono,[4],1.6%
same,Neu,[4],13.4%
same,PT,[4],15.8 s
same,Plat,[4],116.4 x10_4/uL
same,RBC,[4],728.8 x10_4/ul
same,Ret,[4],3.1%
same,WBC,[4],147.1 x10_2/uL
same,KIDNEY_L,[2],1 g
same,KIDNEY_R,[2],1 g
same,KIDNEY_TOTAL,[2],2.1 g
same,KIDNEY_L,[3],1.2 g
same,KIDNEY_R,[3],1.2 g
same,KIDNEY_TOTAL,[3],2.4 g
same,KIDNEY_L,[4],1.3 g
same,KIDNEY_R,[4],1.3 g
same,KIDNEY_TOTAL,[4],2.6 g
same,LIVER,[2],11.2 g
same,LIVER,[3],12.7 g
same,LIVER,[4],15.6 g
same,ALP,[2],1443 IU/L
same,ALT,[2],34.8 IU/L
same,AST,[2],65 IU/L
same,CRE,[2],0.2 mg/dL
same,DBIL,[2],0.004 mg/dL
same,GLC,[2],197.2 mg/dL
same,IP,[2],7.7 mg/dL
same,K,[2],4.6 meq/L
same,LDH,[2],197 IU/L
same,Na,[2],141.6 meq/L
same,PL,[2],140 mg/dL
same,RALB,[2],2.9 g/dL
same,TBIL,[2],0.024 mg/dL
same,TC,[2],67.4 mg/dL
same,TG,[2],131.4 mg/dL
same,TP,[2],5.6 g/dL
same,gamma-GTP,[2],0.8 IU/L
same,ALP,[3],1493.2 IU/L
same,ALT,[3],40 IU/L
same,AST,[3],63 IU/L
same,CRE,[3],0.2 mg/dL
same,DBIL,[3],0 mg/dL
same,GLC,[3],199.4 mg/dL
same,IP,[3],7.2 mg/dL
same,K,[3],4.3 meq/L
same,LDH,[3],136.4 IU/L
same,Na,[3],141.4 meq/L
same,PL,[3],147.4 mg/dL
same,RALB,[3],3 g/dL
same,TBIL,[3],0.012 mg/dL
same,TC,[3],68.4 mg/dL
same,TG,[3],154 mg/dL
same,TP,[3],5.6 g/dL
same,gamma-GTP,[3],1.8 IU/L
same,ALP,[4],1238 IU/L
same,ALT,[4],38.8 IU/L
same,AST,[4],61.8 IU/L
same,CRE,[4],0.3 mg/dL
same,DBIL,[4],0.004 mg/dL
same,GLC,[4],189.6 mg/dL
same,IP,[4],6.3 mg/dL
same,K,[4],3.9 meq/L
same,LDH,[4],151.4 IU/L
same,Na,[4],142.4 meq/L
same,PL,[4],139.6 mg/dL
same,RALB,[4],3 g/dL
same,TBIL,[4],0.022 mg/dL
same,TC,[4],67.8 mg/dL
same,TG,[4],143.4 mg/dL
same,TP,[4],6.1 g/dL
same,gamma-GTP,[4],1.2 IU/L
same,TERMINAL_BW,[5],222.2 g
same,APTT,[5],21.7 s
same,Bas,[5],0%
same,Eos,[5],0.6%
same,Fbg,[5],311.4 mg/dL
same,Hb,[5],13 g/dL
same,Ht,[5],38.1%
same,Lym,[5],81.6%
same,MCHC,[5],34.1%
same,MCV,[5],65.7 fL
same,Mono,[5],1.4%
same,Neu,[5],15.2%
same,PT,[5],15.7 s
same,Plat,[5],130.4 x10_4/uL
same,RBC,[5],581.8 x10_4/ul
same,Ret,[5],7.7%
same,WBC,[5],82.9 x10_2/uL
same,KIDNEY_L,[5],1 g
same,KIDNEY_R,[5],1 g
same,KIDNEY_TOTAL,[5],2 g
same,LIVER,[5],10.7 g
same,ALP,[5],1528 IU/L
same,ALT,[5],38 IU/L
same,AST,[5],65.8 IU/L
same,CRE,[5],0.1 mg/dL
same,DBIL,[5],0 mg/dL
same,GLC,[5],185.4 mg/dL
same,IP,[5],7.5 mg/dL
same,K,[5],4.3 meq/L
same,LDH,[5],213.4 IU/L
same,Na,[5],143 meq/L
same,PL,[5],156 mg/dL
same,RALB,[5],3.1 g/dL
same,TBIL,[5],0.01 mg/dL
same,TC,[5],81.4 mg/dL
same,TG,[5],104.2 mg/dL
same,TP,[5],5.8 g/dL
same,gamma-GTP,[5],1.4 IU/L
same,TERMINAL_BW,[6],250.5 g
same,TERMINAL_BW,[7],308.9 g
same,TERMINAL_BW,[8],366.2 g
same,APTT,[6],22.8 s
same,Bas,[6],0%
same,Eos,[6],1%
same,Fbg,[6],314.8 mg/dL
same,Hb,[6],13.7 g/dL
same,Ht,[6],40.7%
same,Lym,[6],80%
same,MCHC,[6],33.6%
same,MCV,[6],62.6 fL
same,Mono,[6],2.6%
same,Neu,[6],15.8%
same,PT,[6],15.6 s
same,Plat,[6],124.8 x10_4/uL
same,RBC,[6],650.8 x10_4/ul
same,Ret,[6],6.1%
same,WBC,[6],113.1 x10_2/uL
same,APTT,[7],22.6 s
same,Bas,[7],0%
same,Eos,[7],0.8%
same,Fbg,[7],277.4 mg/dL
same,Hb,[7],13.9 g/dL
same,Ht,[7],40.8%
same,Lym,[7],80.6%
same,MCHC,[7],34.2%
same,MCV,[7],60.8 fL
same,Mono,[7],2.2%
same,Neu,[7],15.6%
same,PT,[7],16.2 s
same,Plat,[7],104.4 x10_4/uL
same,RBC,[7],670.4 x10_4/ul
same,Ret,[7],5%
same,WBC,[7],136.7 x10_2/uL
same,APTT,[8],22.8 s
same,Bas,[8],0%
same,Eos,[8],0.8%
same,Fbg,[8],298.8 mg/dL
same,Hb,[8],15.5 g/dL
same,Ht,[8],43.8%
same,Lym,[8],86.8%
same,MCHC,[8],35.5%
same,MCV,[8],57.3 fL
same,Mono,[8],1.8%
same,Neu,[8],10%
same,PT,[8],16 s
same,Plat,[8],107 x10_4/uL
same,RBC,[8],764.6 x10_4/ul
same,Ret,[8],2.6%
same,WBC,[8],141.5 x10_2/uL
same,KIDNEY_L,[6],1.1 g
same,KIDNEY_R,[6],1.1 g
same,KIDNEY_TOTAL,[6],2.1 g
same,KIDNEY_L,[7],1.3 g
same,KIDNEY_R,[7],1.3 g
same,KIDNEY_TOTAL,[7],2.6 g
same,KIDNEY_L,[8],1.3 g
same,KIDNEY_R,[8],1.3 g
same,KIDNEY_TOTAL,[8],2.6 g
same,LIVER,[6],11.8 g
same,LIVER,[7],14.1 g
same,LIVER,[8],14.2 g
same,ALP,[6],1555.8 IU/L
same,ALT,[6],40.4 IU/L
same,AST,[6],64.8 IU/L
same,CRE,[6],0.2 mg/dL
same,DBIL,[6],0 mg/dL
same,GLC,[6],184.6 mg/dL
same,IP,[6],7 mg/dL
same,K,[6],4.4 meq/L
same,LDH,[6],169.2 IU/L
same,Na,[6],141.8 meq/L
same,PL,[6],148.2 mg/dL
same,RALB,[6],3 g/dL
same,TBIL,[6],0.034 mg/dL
same,TC,[6],73.6 mg/dL
same,TG,[6],108 mg/dL
same,TP,[6],5.6 g/dL
same,gamma-GTP,[6],1.2 IU/L
same,ALP,[7],1361 IU/L
same,ALT,[7],40.4 IU/L
same,AST,[7],63.2 IU/L
same,CRE,[7],0.2 mg/dL
same,DBIL,[7],0.008 mg/dL
same,GLC,[7],186.8 mg/dL
same,IP,[7],7.6 mg/dL
same,K,[7],4.2 meq/L
same,LDH,[7],176.6 IU/L
same,Na,[7],142.6 meq/L
same,PL,[7],152.4 mg/dL
same,RALB,[7],3.1 g/dL
same,TBIL,[7],0.012 mg/dL
same,TC,[7],74.2 mg/dL
same,TG,[7],129.6 mg/dL
same,TP,[7],5.5 g/dL
same,gamma-GTP,[7],1.2 IU/L
same,ALP,[8],1279.2 IU/L
same,ALT,[8],41 IU/L
same,AST,[8],64.4 IU/L
same,CRE,[8],0.2 mg/dL
same,DBIL,[8],0.004 mg/dL
same,GLC,[8],181.2 mg/dL
same,IP,[8],5.8 mg/dL
same,K,[8],3.9 meq/L
same,LDH,[8],231.2 IU/L
same,Na,[8],143.4 meq/L
same,PL,[8],131.6 mg/dL
same,RALB,[8],3.1 g/dL
same,TBIL,[8],0.028 mg/dL
same,TC,[8],66.6 mg/dL
same,TG,[8],107.4 mg/dL
same,TP,[8],6.1 g/dL
same,gamma-GTP,[8],1.4 IU/L
